Patent publication US12435060B2, “Acylamino bridged heterocyclic compound, and composition and application thereof” (BEIJING SCITECH-MQ PHARMACEUTICALS LIMITED, priority 2019, dated 2025)

system: HT29 cells; test: Inhibition of cell necrosis (CCK8 method), induced programmed necrosis of HT29 cells; format: cell-based; conditions: Homo sapiens, HT-29; rescue from necrosis induced by TNF-α 20 ng/mL, AT-406 1 μM, Z-VAD-FMK 20 μM; 16-20 hours; CCK-8, OD 450 nm
How it was run: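 HT29 cells in McCOY's 5A with 10% FBS were pre-treated for 30 min with compound (9 fourfold steps, 25000 to 0.38 nM final, 0.25% DMSO). Necrosis was then induced with TNF-α 20 ng/mL, AT-406 1 μM and Z-VAD-FMK 20 μM for 16-20 h. Viability was read by CCK-8 OD450, normalized between uninduced and induced wells, and IC50 was curve-fitted.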

| SMILES | IC50 [nM] |
| --- | --- |
| COc1ccc(C)nc1-c1ccnc(NC(=O)c2nnc(Cc3ccccc3)[nH]2)c1 [Example 60, 5-benzyl-N-(3-methoxy-6-methyl-[2,4′-bipyridin]-2′-yl)-4H-1,2,4-triazole-3-carboxamide] | > 10000 |
| Cc1ccc(CCC(C)(C)O)cc1-c1ccnc(NC(=O)c2nnc(Cc3ccccc3)[nH]2)c1 [Example 482, 5-benzyl-N-(4-(5-(3-hydroxyl-3-methylbutyl)-2-methylphenyl)pyridin-2-yl)-4H-1,2,4-triazole-3-carboxamide] | ≤ 100 |
| CSCCCCOc1ccc(C)c(-c2ccnc(NC(=O)c3nnc(Cc4ccccc4)[nH]3)c2)c1 [Example 150, 5-benzyl-N-(4-(2-methyl-5-(4-(methylthio)butoxy)phenyl)pyridin-2-yl)-4H-1,2,4-triazole-3-carboxamide] | ≤ 100 |
| CC(C)(O)COc1ccc(C(F)(F)F)c(-c2ccnc(NC(=O)c3nnc(Cc4ccccc4F)[nH]3)c2)c1 [Example 265, 5-(2-fluorobenzyl)-N-(4-(5-(2-hydroxyl-2-methylpropoxy)-2-(trifluoromethyl)phenyl)pyridin-2-yl)-4H-1,2,4-triazole-3-carboxamide] | 100 to 1000 |
| C=CCCCOc1ccc(C)c(-c2ccnc(NC(=O)c3nnc(Cc4ccccc4)[nH]3)c2)c1 [Example 149, 5-benzyl-N-(4-(2-methyl-5-(pent-4-en-1-yloxy)phenyl)pyridin-2-yl)-4H-1,2,4-triazole-3-carboxamide] | ≤ 100 |
| CC(C)OCCOc1ccc(C(F)(F)F)c(-c2ccnc(NC(=O)c3nnc(CC4CCCCC4)[nH]3)c2)c1 [Example 290, 5-(cyclohexylmethyl)-N-(4-(5-(2-isopropoxyethoxy)-2-(trifluoromethyl)phenyl)pyridin-2-yl)-4H-1,2,4-triazole-3-carboxamide] | ≤ 100 |
| Cc1ccc(OCCN2CCCCC2)cc1-c1ccnc(NC(=O)c2nnc(Cc3ccccc3)[nH]2)c1 [Example 228, 5-benzyl-N-(4-(2-methyl-5-(2-(piperidin-1-yl)ethoxy)phenyl)pyridin-2-yl)-4H-1,2,4-triazole-3-carboxamide] | 100 to 1000 |
| CC(C)(O)CCCCOc1ccc(F)c(-c2cc(NC(=O)c3nnc(Cc4ccccc4F)[nH]3)ncc2Cl)c1 [Example 325, N-(5-chloro-4-(2-fluoro-5-((5-hydroxyl-5-methylhexyl)oxy)phenyl)pyridin-2-yl)-5-(2-fluorobenzyl)-4H-1,2,4-triazole-3-carboxamide] | 100 to 1000 |
| COc1cc(Cc2nnc(C(=O)Nc3cc(-c4cc(OCCCC(C)(C)O)ccc4Cl)ccn3)[nH]2)ccc1F [Example 343, N-(4-(2-chloro-5-((4-hydroxy-4-methylpentyl)oxy)phenyl)pyridin-2-yl)-5-(4-fluoro-3-methoxybenzyl)-4H-1,2,4-triazole-3-carboxamide] | 1000 to 10000 |
| Cc1ccc(OCCCCCO)cc1-c1ccnc(NC(=O)c2nnc(CC3CCCC3)[nH]2)c1 [Example 224, 5-(cyclopentylmethyl)-N-(4-(5-((5-hydroxypentyl)oxy)-2-methylphenyl)pyridin-2-yl)-4H-1,2,4-triazole-3-carboxamide] | ≤ 100 |
| O=C(Nc1cc(-c2cc(OCCC3CCOCC3)ccc2Cl)ccn1)c1nnc(CC2CCCC2)[nH]1 [Example 405, N-(4-(2-chloro-5-(2-(tetrahydro-2H-pyran-4-yl)ethoxy)phenyl)pyridin-2-yl)-5-(cyclopentylmethyl)-4H-1,2,4-triazole-3-carboxamide] | ≤ 100 |
| O=C(Nc1cc(-c2ccccc2OC(F)(F)F)ccn1)c1nnc(Cc2ccccc2)[nH]1 [Example 6, 5-benzyl-N-(4-(2-(trifluoromethoxy)phenyl)pyridin-2-yl)-4H-1,2,4-triazole-3-carboxamide] | 1000 to 10000 |
| Cc1ccc(F)cc1-c1ccnc(NC(=O)c2nnc(Cc3ccccc3)[nH]2)c1 [Example 33, 5-benzyl-N-(4-(5-fluoro-2-methylphenyl)pyridin-2-yl)-4H-1,2,4-triazole-3-carboxamide] | 100 to 1000 |
| Cc1ccc(Cl)cc1-c1ccnc(NC(=O)c2nnc(Cc3ccccc3)[nH]2)c1 [Example 34, 5-benzyl-N-(4-(5-chloro-2-methylphenyl)pyridin-2-yl)-4H-1,2,4-triazole-3-carboxamide] | 100 to 1000 |
| CCOc1ccc(OC)c(-c2ccnc(NC(=O)c3nnc(Cc4ccccc4)[nH]3)c2)c1 [Example 107, 5-benzyl-N-(4-(5-ethoxy-2-methoxyphenyl)pyridin-2-yl)-4H-1,2,4-triazole-3-carboxamide] | 1000 to 10000 |
| O=C(Nc1cc(-c2cc(OCCC3CCOCC3)ccc2Cl)c(Cl)cn1)c1nnc(Cc2ccccc2F)[nH]1 [Example 430, N-(5-chloro-4-(2-chloro-5-(2-(tetrahydro-2H-pyran-4-yl)ethoxy)phenyl)pyridin-2-yl)-5-(2-fluorobenzyl)-4H-1,2,4-triazole-3-carboxamide] | 100 to 1000 |
| CC(C)(C)OCCOc1ccc(Cl)c(-c2ccnc(NC(=O)c3nnc(Cc4ccccc4)[nH]3)c2)c1 [Example 391, 5-benzyl-N-(4-(5-(2-(tert-butoxy)ethoxy)-2-chlorophenyl)pyridin-2-yl)-4H-1,2,4-triazole-3-carboxamide] | ≤ 100 |
| O=C(Nc1cc(-c2cc(OCC3CCOCC3)ccc2C(F)(F)F)ccn1)c1nnc(Cc2ccc(F)cc2)[nH]1 [Example 302, 5-(4-fluorobenzyl)-N-(4-(5-((tetrahydro-2H-pyran-4-yl)methoxy)-2-(trifluoromethyl)phenyl)pyridin-2-yl)-4H-1,2,4-triazole-3-carboxamide] | ≤ 100 |
| CC(C)(C)OCCOc1ccc(C(F)(F)F)c(-c2ccnc(NC(=O)c3nnc(CC4CCCCC4)[nH]3)c2)c1 [Example 294, 5-(cyclohexylmethyl)-N-(4-(5-(2-(tert-butoxy)ethoxy)-2-(trifluoromethyl)phenyl)pyridin-2-yl)-4H-1,2,4-triazole-3-carboxamide] | ≤ 100 |
| O=C(Nc1cc(-c2cc(OCC3CCOCC3)ccc2Cl)c(F)cn1)c1nnc(Cc2ccccc2F)[nH]1 [Example 422, N-(4-(2-chloro-5-((tetrahydro-2H-pyran-4-yl)methoxy)phenyl)-5-fluoropyridin-2-yl)-5-(2-fluorobenzyl)-4H-1,2,4-triazole-3-carboxamide] | ≤ 100 |
| Cc1ccc(OCC2CCOCC2)cc1-c1cc(NC(=O)c2nnc(Cc3ccccc3F)[nH]2)ncn1 [Example 442, 5-(2-fluorobenzyl)-N-(6-(2-methyl-5-((tetrahydro-2H-pyran-4-yl)methoxy)phenyl)pyrimidin-4-yl)-4H-1,2,4-triazole-3-carboxamide] | ≤ 100 |
| O=C(Nc1cc(-c2cc(OCC3CCOCC3)ccc2F)ccn1)c1nnc(Cc2ccccc2F)[nH]1 [Example 315, 5-(2-fluorobenzyl)-N-(4-(2-fluoro-5-((tetrahydro-2H-pyran-4-yl)methoxy)phenyl)pyridin-2-yl)-4H-1,2,4-triazole-3-carboxamide] | 100 to 1000 |
| COc1cccc(Cc2nnc(C(=O)Nc3cc(-c4cc(OCCCC(C)(C)O)ccc4C)ccn3)[nH]2)c1 [Example 186, 5-(3-methoxybenzyl)-N-(4-(5-((4-hydroxy-4-methylpentyl)oxy)-2-methylphenyl)pyridin-2-yl)-4H-1,2,4-triazole-3-carboxamide] | 100 to 1000 |
| Cc1ccc(C(C)(C)O)cc1-c1ccnc(NC(=O)c2nnc(Cc3ccccc3)[nH]2)c1 [Example 199, 5-benzyl-N-(4-(5-(2-hydroxypropan-2-yl)-2-methylphenyl)pyridin-2-yl)-4H-1,2,4-triazole-3-carboxamide] | 1000 to 10000 |
